# Results: patent publication US7592326B2, “Method for stimulating the immune, inflammatory or neuroprotective response” (priority 2004, dated 2009)
# Tests used:
# [1] = tested on: human basophils; assay: IL-3 dependent IL-13 secretion by human basophils; format: cell-based; conditions: under the conditions tested
# [2] = tested on: JNK; assay: Signaling in human DCs: JNK; format: cell-based; conditions: under the conditions tested
# Procedure: (§1) Human PBMC were isolated by Ficoll density gradient centrifugation from leukopacks supplied by the Department of Transfusion Medicine (Clinical Center, National Institute of Health, Bethesda, Md.). Monocytes were purified (>95%) from human PBMC with MACS CD14 monocyte isolation kit (Miltenyi Biotech Inc., Auburn, Calif.) according to the manufacturer's instruction. DCs were generated as described previously (Yang et al., 2001). In brief, DCs were generated by incubating purified monocytes at 2×10^5/ml in RPMI 1640 containing 10% FBS, 2 mM glutamine, 25 mM HEPES, 100 U/ml penicillin, 100 ug/ml streptomycin, 50 ng/ml recombinant human GM-CSF (PeproTech, Rocky Hill, N.J.), and 50 ng/ml recombinant human IL-4 (PeproTech) at 37° C. in a CO2 (5%) incubator for 7 days. On day 3 and 5 of the incubation, half of the culture medium was replaced with pre-warmed (37° C.) fresh GM-CSF- and IL-4-containing medium. On day 7, DCs were collected, washed three times with PBS, and serum-starved for 8 hours by incubating in serum-free RPMI-1640 containing GM-CSF and IL-4 (2×10^5/ml) at 37° C. in a CO2 (5%) incubator. Subsequently, DCs (2×10^6/sample) were incubated at 37° C. in the absence or presence of c-di-GMP or GMP (Sigma, St. Louis, Mo.) at concentrations specified for 5 or 30 minutes. […]
# [3] = tested on: Murine splenic DCs; assay: Activation of murine splenic DCs; conditions: 200 uM, 24 h
# [4] = tested on: ERK; assay: Western blot signaling in human DCs: ERK; format: cell-based; conditions: data not shown
# Procedure: as §1
# [5] = tested on: anti-ClfA IgG antibody; assay: Adjuvant effect in vaccination with S. aureus ClfA (serum ELISA); format: in vivo, CD-1 female mice
# Procedure: To evaluate the capacity of c-di-GMP to increase antibody production in the mouse (adaptive immune response), the cyclic dinucleotide was used as adjuvant for vaccination with S. aureus ClfA recombinant protein (a surface adhesion protein of S. aureus binding fibrinogen), as previously done for ClfA alone without adjuvant (Brouillette et al., 2002). Two groups of eight CD-1 female mice were vaccinated intramuscularly with 100 μl of saline containing 25 μg of ClfA. For one of the groups, the solution injected also contained 200 nmol of c-di-GMP. A volume of 50 ul was then injected into both quadriceps. This procedure was repeated two weeks after, for a second injection. Twelve days later, i.e. 26 days after the initial injections, blood samples were taken and incubated at 35° C. for an hour to allow coagulation, and then centrifuged at 13,000 g for 10 min at 4° C. Sera were harvested and kept at −20° C. until tested. The institutional ethics committee on animal experimentation of the Faculté des sciences of Université de Sherbrooke approved these experiments and were carried out following the guidelines of the Canadian Council on Animal Care.
# Enzyme-linked immunosorbant assays (ELISA) were used to determine the presence of IgG antibodies against the ClfA antigen in the mouse serum, as previously described (Brouillette et al., 2002). Polystyrene Maxisorp 96-well plates (Nalge-Nunc International) were coated for 2 h with 50 μl of recombinant ClfA (domaine A) protein at a concentration of 10 μg/ml in carbonate/bicarbonate buffer at pH 9.6. Following saturation of the wells with a solution of powdered milk in PBS (5% w/v), overnight at 4° C., four-fold dilutions of sera (1/1000 to 1/64000) were added and incubated for 2 h at 35° C. and then overnight at 4° C. Biotinylated anti-mouse IgG (1/1000) was added and incubated for 2 h at 35° C. After 1 h of incubation with streptavidin-HRP (Amersham Pharmacia Biotech) diluted 1/500, 100 μl of Sure Blue TMB Peroxidase Substrate (KPL) was added. The enzyme reaction was stopped by the addition of 50 μl of 1N HCl after 6 min of incubation. Between each step, three washes with PBS-Tween 0.05% were carried out. The optical density (OD) was read on a plate reader (Bio-Tek Instruments) at 450 nm.
# ELISA assays were carried out as for the total IgG assay but the secondary antibody was either mouse anti-IgG1-HRP or mouse anti-IgG2a-HRP (BD Pharmingen) and four-fold dilutions of sera form 1/250 to 1/16000 were assayed. Quantitation of mouse antibodies was achieved as for the total IgG assay but the development of coloration was allowed for 10 min. […] For the statistical analysis of ELISA results, the O.D. data for mice vaccinated with the c-di-GMP molecule as adjuvant were matched up to the corresponding data (isotype and dilution) where mice were injected with saline instead of c-di-GMP. One way analysis of variance (ANOVA) was used with the Bonferroni post-hoc test to account for multiple comparisons (Graphpad InStat software, version 3.06).
# [6] = serum dilution of 1/1000, FIG. 7B
compound,measurement,setting,value
"Nc1nc(=O)c2ncn([C@@H]3OC4COP(=O)(O)O[C@H]5[C@@H](O)[C@H](n6cnc7c(=O)nc(N)[nH]c76)O[C@@H]5COP(=O)(O)OC4C3O)c2[nH]1 (some centres unmarked) [c-di-GMP, Bis(3′→5′)-cyclic diguanylic acid]",effect on IL-13 induced by IL-3,[1],essentially no inhibition
same,activation of JNK,[2],did not activate
same,surface expression of co-stimulatory molecules CD80 and CD86,[3]; FIG. 9A,increase
same,TNF and IL-8 protein in supernatant,[3]; FIGS. 9B and 9C,increase
same,activation of ERK,[4],did not activate
same,"ELISA optical density, IgG1 and IgG2a isotypes","[5]; serum dilution 1/16000, c-di-GMP treated group",around 0.5
same,"ELISA optical density, total IgG","[5]; serum dilution 1/64000, c-di-GMP treated group",around 0.5
same,increase of IgG1 (optical density ratio c-di-GMP/saline),[5]; [6],3.6 times
same,increase of IgG2a (optical density ratio c-di-GMP/saline),[5]; [6],208.9 times
same,increase of total IgG (optical density ratio c-di-GMP/saline),[5]; [6],7.7 times
same,anti-ClfA IgG antibody titers compared with ClfA alone,"[5]; two i.m. injections, 200 nmol c-di-GMP + 25 μg ClfA, serum day 26, P<0.001",significantly higher
